These results are taken from patent US9308198B2, “Treatment, prevention, and reversal of alcohol-induced brain disease” (priority 2006, dated 2016).

One assay concerns ChAT. Description: ChAT immunoreactivity (MICE assay). It is filed as cell-based, rat. The procedure:
(§1) In vitro experiments were used to examine the effects of ethanol on receptor binding and choline acetyltransferase (ChAT) and acetylcholinesterase (AChE) expression in cerebellar neurons. Primary neuronal cultures were generated with postnatal day 8 rat pup cerebellar tissue (Nikolic et al. Genes Dev. 10:816 (1996)). The cultures were maintained with Dulbecco's modified Eagle's medium (DMEM) supplemented with 5% fetal calf serum, 4 mM glutamine, 100 μM non-essential amino acid mixture (Gibco-BRL, Grand Island, N.Y.), 25 mM KCl, and 9 g/L glucose. Ethanol treatment was accomplished by placing the cultures (seeded in 6-well dishes or 96-well plates) in sealed chambers in which 50 mM ethanol was vaporized from a reservoir tray (de la Monte et al. Alcohol Clin. Exp. Res. 24:716 (2000); Banerjee et al. Alcohol Clin. Exp. Res. 22:2093 (1998)). Control cultures were identically treated but with water added to the reservoir tray. The chambers were flushed with gas containing 75% nitrogen, 20% oxygen, and 5% carbon dioxide. After 96 hours incubation at 37° C., the cells were harvested to measure insulin, IGF-I, and IGF-II receptor binding. Alternatively, the cells were serum-starved for 12 hours and then stimulated with 10 nM insulin, 10 mM IGF-I, 25 nM IGF-II, or vehicle for 16 hours, and RNA was harvested to measure ChAT and AChE expression. Parallel 96-well cultures stimulated with growth factors for 10 minutes were used to measure ATP, or for 16 hours to measure viability, and ChAT or AChE immunoreactivity. To investigate the role of membrane cholesterol content in relation to receptor binding, control and ethanol-exposed cells were treated with vehicle, 10 mM Methyl-β-cyclodextrin (MβCD), or 10 mM aqueous soluble cholesterol in Locke's buffer (154 mM NaCl, 5.6 mM KCl, 2.3 mM CaCl2, 1.0 mM MgCl2, 3.6 mM NaHCO3, 5 mM glucose, 5 mM Hepes, pH 7.4) for 3 hours and then harvested for binding assays. To examine the effects of membrane cholesterol content on growth factor stimulated neuronal viability and function, identically treated 96-well cultures were stimulated with vehicle, 10 nM insulin, 10 nM IGF-I, or 25 nM IGF-II for 10 minutes and then analyzed for ATP content, or for 16 hours and then used to measure viability and ChAT or AChE immunoreactivity with the MICE assay (de la Monte et al., Biotechniques 26:1073 (1999)). ATP content was measured with the ATPLite assay (Packard, Meriden, Conn.). Viability was measured using the CyQuant assay (Molecular Probes, Eugene, Oreg.). Immunoreactivity was measured directly in the cultured wells using the microtiter immunocytochemical ELISA (MICE) assay (de la Monte et al., Biotechniques 26:1073 (1999)).
The concentration of ethanol used was within the range detected in human alcoholics (Fulop et al., Am. J. Med. 80:191 (1986); Jagger et al., Neurosurgery 15:303 (1984)). ChAT and AChE immunoreactivity were measured directly in the cultured cells using the MICE assay (cellular ELISA), with values normalized to cell density.
The effects of cholesterol or MβCD treatment on neuronal viability (FIGS. 19A-19C), ATP production (energy metabolism; FIGS. 19D-19F), ChAT (FIGS. […]) and AChE (FIGS. 19J-19L) immunoreactivity were examined in cells that were treated as described above and stimulated 12 hours with vehicle (control), 10 nM insulin, 10 nM IGF-I, or 25 nM IGF-II in serum-free medium. All assays were performed using 96-well cultures. Viability was measured using the CyQuant assay and ATP content was measured using the ATPLite assay.

The test system of assay [1] is primary cerebellar neuron cultures. Description: Membrane cholesterol content, primary cerebellar neuron cultures. It counts as cell-based, rat. Conditions: for membrane cholesterol content: 10 mM for 3 hours in Locke's buffer, control and ethanol-exposed cerebellar cultures. The procedure: as §1, with “Alternatively, the cells were serum-starved for 12 hours and then stimulated with 10 nM insulin, 10 mM IGF-I, 25 nM IGF-II, or vehicle for 16 hours, and RNA was harvested to measure ChAT and AChE expression. Parallel 96-well cultures stimulated with growth factors for 10 minutes were used to measure ATP, or for 16 hours to measure viability, and ChAT or AChE immunoreactivity. To investigate the role of membrane cholesterol content in relation to receptor binding, control and ethanol-exposed cells were treated with vehicle, 10 mM Methyl-β-cyclodextrin (MβCD), or 10 mM aqueous soluble cholesterol in Locke's buffer (154 mM NaCl, 5.6 mM KCl, 2.3 mM CaCl2, 1.0 mM MgCl2, 3.6 mM NaHCO3, 5 mM glucose, 5 mM Hepes, pH 7.4) for 3 hours and then harvested for binding assays.” left out

The mark [2] stands for this setting: 10 mM for 3 hours, control cells.

Regarding `CC(C)CCC[C@@H](C)[C@H]1CC[C@H]2[C@@H]3CC=C4C[C@@H](O)CC[C@]4(C)[C@H]3CC[C@]12C` [cholesterol], the “basal and growth factor stimulated ChAT expression” value with ChAT (setting [2]) is “muted”. Moreover, the “insulin-, IGF-I-, and IGF-II-stimulated levels of ChAT” value with ChAT (10 mM for 3 hours, ethanol-exposed cells, relative to vehicle-treated cells) was “significantly increased”. Besides, the membrane cholesterol content entry in assay [1] is listed as “significantly increased”.
`CCO` [ethanol]: in the assay on ChAT (50 mM ethanol for 96 hours, basal, insulin-stimulated and IGF-I stimulated, relative to control), the ChAT immunoreactivity result is given as “significantly reduced”. In assay [1] (in vitro exposure to 50 mM ethanol for 96 hours), the “cerebellar neuron membrane cholesterol content” value was “significantly reduced”.
In the case of Methyl-β-cyclodextrin [MβCD], in the assay with ChAT (setting [2]), the “IGF-I- and IGF-II-stimulated ChAT” value was “significantly increased”; the “insulin-stimulated ChAT” value is listed as “abolished the insulin-stimulated increases in ChAT”. Further, in the assay on ChAT (10 mM for 3 hours, ethanol-exposed cells, independent of growth factor stimulation), the “ChAT expression relative to control” value is “broadly reduced levels”. For the same compound, the membrane cholesterol content result in assay [1] is given as “significantly reduced”.
